# Results taken from paper PMC10987949, “Inhibition of HIV-1 release by ADAM metalloproteinase inhibitors” (Frontiers in Microbiology, 2024).
# How the values were obtained:
# CD62L shedding [1] = experiment: Soluble CD62L ELISA, unstimulated PBMC; format: cell-based, human; settings: Homo sapiens, PBMC; 10 μM compound; non-stimulated cells; ELISA; read-out: Shedding inhibition Non-stim.
# Method: PBMC from de-identified healthy donors were obtained with informed consent from the Department of Transfusion Medicine, National Institutes of Health under Biological reagent Registry RD-14-IX-12 approved by NIH biological safety board. CD8-depleted PBMCs, either stimulated or non-stimulated with 10 μg/mL phytohaemagglutinin (PHA) or anti-CD3 antibody (with or without conjugated beads), were plated at 2×10^6 cells/ml in 48 well plates in RPMI 1640 + 10%FBS (R10) to a final volume of 1 mL in each well. IL-2 was added at a final concentration of 20 U/mL. CD3 antibody okt3 was used at ~0.2 μg/mL final concentration. […] Supernatants were collected and assessed using either the CD62L or TNF-α Duo Set ELISA kit according to manufacturer's instructions (R&D Systems, Inc.). The viability of cells treated with compounds was assessed by acridine orange / propidiom iodide (AO/PI Logosbio catalog F23001) staining using Luna-FL cell counter following the manufacture's instruction.^2 […] Supplemental Figure 1. CD62L shedding from unstimulated PBMC. A) Soluble CD62L in the supernatant of unstimulated PBMC was measured By ELISA (R&D systems, Inc) after 24 hour treatment in the presence of 10 μM of […]), aminopeptidase (AP) protease inhibitors, respectively, or their untreated controls. Statistics were calculated using unpaired parametric student t-test between individual treatment and DMSO control. […] B) Viability of PBMC treated with 10-500 μM of MMP inhibitors for 24hours. […] Untreated DMSO AEBSF 3,4-Dichloroisocouman Granzyme B Inhibitor II Granzyme B Inhibitor IV Aprotinin […] 3 4 CD62L shedding from unstimulated PBMC Soluble CD62L (ng/ml) Inhibitor Class […] GI254023X 10 GI254023X 100 […] GI254023X 1000 GW280264X 10 GW280264X 100 […] GW280264X 1000 Marimastat 10 Marimastat 100 Marimastat 250 […]
# [2] = biological target: T1, recombinant HIV-1 protease (Human immunodeficiency virus type 1 group M subtype B, UniProt P04585); experiment: HIV-1 protease fluorogenic substrate cleavage; format: biochemical; settings: 100nM saquinavir or nelfinavir; MMP inhibitors up to 10uM
# T1 construct: recombinant HIV-1 protease; purchased Sigma-Aldrich SRP2151
# Method: HIV-1 protease enzymatic activity was assayed in black 96-well plates at room temperature using a Synergy_h1 fluorescent plate reader with 340 nm excitation and 490 nm emission wavelengths (BioTek). Each enzymatic reaction consisted of a mixture of 100 ng of recombinant HIV-1 protease (Sigma-Aldrich catalog SRP2151), 5 μM concentration of a fluorogenic substrate Arg-Glu(EDANS)-[…]DABCYL)-Arg (Sigma-aldrich catalog H6660), and various concentrations of inhibitor compounds in 100 μL of assay buffer (0.15 M sodium chloride, 1.0 mM EDTA, 1.0 mM DTT, 0.1 M sodium acetate, pH 5.0). The fluorescence of the cleavage reaction was continuously read at every 30 s for a total of 40 min.
# HIV-1 = experiment: Ex vivo HIV-1 release from CD4 T cells of HIV-1 infected individuals; format: cell-based; settings: 50 μM; CD4 T cells from six HIV-1 infected individuals; day 2 and 4
# Method: PBMCs were collected from the study subjects in accordance with a clinical protocol approved by the Institutional Review Board of the National Institute of Allergy and Infectious Diseases, National Institutes of Health under protocol #02-I-0202. CD4^+ T cells were isolated from the PBMCs using a human CD4 T cell separation system (StemCell Technologies, Catalog 19052) and were cultured with medium alone or with plate-bound anti-CD3 and soluble anti-CD28 antibody in the absence or presence of 50 μM of indicated compounds for 48 h. The copy number of cell-free viron-associated HIV RNA in the culture supernatants was quantified using the Cobas Ampliprep/Cobas Taqman HIV-1 Test, Version 2.0 (Roche Diagnostics) with droplet digital PCR (ddPCR, BIO-RAD) on day 2 and 4 of stimulation.
# CD62L shedding [3] = experiment: Soluble CD62L ELISA, anti-CD3/PHA stimulated PBMC or CD4 T cells; format: cell-based, human; settings: ELISA
# Method: PBMC from de-identified healthy donors were obtained with informed consent from the Department of Transfusion Medicine, National Institutes of Health under Biological reagent Registry RD-14-IX-12 approved by NIH biological safety board. […] IL-2 was added at a final concentration of 20 U/mL. CD3 antibody okt3 was used at ~0.2 μg/mL final concentration. […] Supernatants were collected and assessed using either the CD62L or TNF-α Duo Set ELISA kit according to manufacturer’s instructions (R&D Systems, Inc.). The viability of cells treated with compounds was assessed by acridine orange / propidiom iodide (AO/PI Logosbio catalog F23001) staining using Luna-FL cell counter following the manufacture’s instruction.^2
structure (smiles),measurement,setting,value
CNC(=O)[C@H](Cc1c[nH]c2ccccc12)NC(=O)[C@@H](CC(=O)NO)CC(C)C [GM6001],inhibition at 10 µM,CD62L shedding [1],20 to 50%
same,effect on HIV protease cleavage of fluorogenic substrate,[2],"none of the MMP inhibitors, including BB-94, prinomastat, GM6001 and DMDP, inhibited the activity of HIV protease"
same,effect on viral release (virion-associated HIV RNA),HIV-1,inhibited viral release in a portion of the samples
same,inhibition at 10 µM,"CD62L shedding [3]; Homo sapiens, 10 μM compound, stimulated cells",20 to 50%
same,effect on CD62L shedding / soluble CD62L,CD62L shedding [3]; stimulated PBMC or CD4 T cells,suppressed CD62L shedding
